Earlier results as cited in patent US11801302B2, “Formulations and uses thereof” (priority 2020, dated 2023).
“Also recorded” adds a separate entry of the source.

How the values were obtained:
[1] = test system: hyperactivity induced by MK-801; settings: in vivo
[2] = test system: inflammatory markers PPARγ and TNFα; settings: with emu oil; animal model of ulcerative colitis
diuresis = settings: dose-dependent; only when animals were fluid overloaded, not euvolemic
anxiety = settings: in vivo
[3] = test system: UV-induced hyperpigmentation of the skin; settings: in vivo
normal mice = settings: observed only at a dose of 30 mg/kg in normal mice
[4] = test system: atypical/precancerous stem cells; settings: used separately or together
bone = settings: in vivo
[5] = compared with other vitamin K homologs
HDL and LDL cholesterol = settings: in vivo
chronic plaque psoriasis = settings: topical application
cancer = settings: in vitro and in vivo
[6] = test system: cholesterol transport-related protein (NPC1L1); settings: cell model
wound = settings: setting of a wound
[7] = test system: anger, mitochondrial function; settings: in vivo
blood pressure = settings: in some cases patients no longer needing antihypertensive medications
[8] = test system: central benzodiazepine receptor
[9] = test system: skin, prostate, breast, and ovarian cancer; settings: preclinical models of skin
[10] = test system: patients who respond with increased carboxylation of osteocalcin; settings: subset of patients with increased carboxylation of osteocalcin

SMILES: O=c1c(O)c(-c2ccc(O)c(O)c2)oc2cc(O)cc(O)c12 [Quercetin]
- hyperactivity induced by NMDA receptor antagonist MK-801 [1]: transmission and alleviates the hyperactivity

SMILES: CC1(C)[C@@H](O[C@H]2O[C@H](C(=O)O)[C@@H](O)[C@H](O)[C@H]2O[C@@H]2O[C@H](C(=O)O)[C@@H](O)[C@H](O)[C@H]2O)CC[C@]2(C)[C@H]3C(=O)C=C4[C@@H]5C[C@@](C)(C(=O)O)CC[C@]5(C)CC[C@@]4(C)[C@]3(C)CC[C@@H]12 [glycyrrhizin]
- anti-inflammatory effect by modulating PPARγ and TNFα [2]: synergizes with emu oil to exert a stronger anti-

SMILES: C=C(C)C1CCC(C)(O)C(O)C1 (stereo not drawn) [limonene-1-2-diol]
- production of IFN-γ, IL-2, TNF-α, IL-4 and IL-13 by CD3(+) CD4(+) T cells; IFN-γ, IL-2, and TNF-α by CD3(+) CD8(+) T cells (T lymphocytes): viability (PMID 23059811) by inhibiting

SMILES: C=C(C)[C@H]1CC=C(C)CC1 [D-limonene]
- diuretic effect (diuresis): more capable. D-limonene has a mild diuretic
- production of IFN-γ, IL-2, TNF-α, IL-4 and IL-13 by CD3(+) CD4(+) T cells; IFN-γ, IL-2, and TNF-α by CD3(+) CD8(+) T cells (T lymphocytes): viability (PMID 23059811) by inhibiting
- anxiolytic properties with flumazenil (anxiety): is NOT reversed by flumazenil, indicating a

SMILES: CCCCC/C=C\C/C=C\CCCCCCCC(=O)O [Linoleic acid]
- UV-induced hyperpigmentation of the skin [3]: shown to lighten UV-induced

SMILES: COc1cc(CCC(C)=O)ccc1O [zingerone]
- diuretic effect (normal mice): Oil, zingerone exhibited a mild diuretic effect

SMILES: COc1cc(/C=C/C(=O)CC(=O)/C=C/c2ccc(O)c(OC)c2)ccc1O [curcumin, diferuloylmethane]
- number of atypical/precancerous stem cells [4]: reduced the number of atypical/precancerous stem cells

SMILES: CC(C)=CCC/C(C)=C/CC/C(C)=C/CC/C(C)=C/CC/C(C)=C/CC/C(C)=C/CC/C(C)=C/CC1=C(C)C(=O)c2ccccc2C1=O [MK7]
- bone mineral density (bone): other vitamin K homologs. MK7 increases
- bioavailability [5]: higher bioavailability
- half-life [5]: longer half-life

SMILES: CCCCCCCCCCCCCCCCCC(=O)O [Stearic acid]
- “bad” cholesterol LDL (HDL and LDL cholesterol): cholesterol HDL while reducing the “bad”
- “good” cholesterol HDL (HDL and LDL cholesterol): 10945745) and can increase the “good”

SMILES: C=C1/C(=C\C=C2/CCC[C@]3(C)[C@@H]([C@H](C)/C=C/[C@@H](O)C4CC4)CC[C@@H]23)C[C@@H](O)C[C@@H]1O [calcipotriene]
- chronic plaque psoriasis (chronic plaque psoriasis): topical application of calcipotriene improves

SMILES: CC(C)=CCC/C(C)=C/CO [geraniol]
- kidney glycogen content (GLUT2 transporter; compared to diabetic control): release of glucose from the liver; also doubled
- renal glucose output (GLUT2 transporter; compared to diabetic control): kidney glycogen content, doubling renal glucose
- GLUT2 transporter (GLUT2 transporter; geraniol from Cymbopogon martinii): inhibition of GLUT2 transporter by geraniol

SMILES: O=C(O)c1cc(O)c(O)c(O)c1 [Gallic Acid]
- inhibitory properties against cancer (cancer): Plant polyphenol with strong inhibitory

SMILES: CCCCCCCC/C=C\CCCCCCCC(=O)O [Oleic acid (OA)]
- expression of cholesterol transport-related protein (NPC1L1) [6]: 2235880). OA has been shown to decrease
- pain and itch receptors (pain and itch receptors): directly inhibits pain and itch receptors (PMID
- thickness of the necrotic tissue layer in the wound (wound): wound healing tissue mass, while decreasing
- anger [7]: unexpectedly has been shown to decrease anger
- lipophilic penetration of skin cells (skin cells): Oleic acid (OA) enhances lipophilic penetration
- blood pressure (blood pressure): 21181463). OA has been shown to reduce blood

SMILES: O=c1cc(-c2ccc(O)cc2)oc2cc(O)cc(O)c12 [Apigenin]
- anxiolytic and mild sedative effects when flumazenil is administered first ([8]; benzodiazepine antagonist flumazenil): (PMID 7617761), an effect that is reversible
- effects as central benzodiazepine receptor ligand ([8]; in vivo): ligand with anxiolytic and slight sedative; also recorded: ligand with anxiolytic and mild sedative effects
- antitumor effect [9]: exerts an antitumor effect in preclinical models

SMILES: C=C(C)[C@@H]1CC=C(C(=O)O)CC1 [perillic acid]
- production of IFN-γ, IL-2, TNF-α, IL-4 and IL-13 by CD3(+) CD4(+) T cells; IFN-γ, IL-2, and TNF-α by CD3(+) CD8(+) T cells (T lymphocytes): viability (PMID 23059811) by inhibiting

SMILES: CC(C)=CCC/C(C)=C/CC/C(C)=C/CC/C(C)=C/CC/C(C)=C/CC/C(C)=C/CC/C(C)=C/CC1=C(C)C(=O)c2ccccc2C1=O [Vitamin K2 (MK7)]
- body weight, abdominal and visceral fat [10]: reduced body weight, abdominal and visceral
